Data published in patent US7176261B2, “Angiotensin-(1-7) eluting polymer-coated medical device to reduce restenosis and improve endothelial cell function” (Medtronic, Inc., priority 2004, dated 2007).
Marks after values point to notes of the source that are not given here.

What was measured:
ACE = biological target: T1, ACE (Homo sapiens, UniProt P12821); conditions: after six months of treatment, more than 2,000 patients; cited from earlier work
T1 construct: host or cells: patients (in vivo, endogenous enzyme)

[1] = tested on: rats with uncoated stents implanted in the abdominal aorta; experiment: Angiotensin-(1-7) pump study in rat aorta model (uncoated stents, micropump infusion); assay type: in vivo
Procedure: The effects of Ang-(1-7) on restenosis were studied in rats with uncoated stents implanted in the abdominal aorta with Ang-(1-7) infused by implantable micro pump. Twelve rats per group were implanted with stents and micropumps containing one of three infusion regimens for three weeks. Control rats received saline infusions and the Ang-(1-7) groups received infusion of Ang-(1-7) at 10 μg/kg/hr or 24 μg/kg/hr.
The rats receiving 24 μg/kg/hr, however, scored lower in neointimal level and percentage stenosis (Table 1 and FIG. 7). A 27% reduction in neointimal area was seen between the control rats and those receiving 24 μg/kg/hr Ang-(1-7). Ang-(1-7) has a clear beneficial effect on the restenosis rate.

[2] = tested on: smooth muscle cell proliferation; conditions: intravenous infusion; cited from earlier work
[3] = Ang-(1-7) infusion 24 μg/kg/hr for three weeks

T1 sequence (P12821 30-1306): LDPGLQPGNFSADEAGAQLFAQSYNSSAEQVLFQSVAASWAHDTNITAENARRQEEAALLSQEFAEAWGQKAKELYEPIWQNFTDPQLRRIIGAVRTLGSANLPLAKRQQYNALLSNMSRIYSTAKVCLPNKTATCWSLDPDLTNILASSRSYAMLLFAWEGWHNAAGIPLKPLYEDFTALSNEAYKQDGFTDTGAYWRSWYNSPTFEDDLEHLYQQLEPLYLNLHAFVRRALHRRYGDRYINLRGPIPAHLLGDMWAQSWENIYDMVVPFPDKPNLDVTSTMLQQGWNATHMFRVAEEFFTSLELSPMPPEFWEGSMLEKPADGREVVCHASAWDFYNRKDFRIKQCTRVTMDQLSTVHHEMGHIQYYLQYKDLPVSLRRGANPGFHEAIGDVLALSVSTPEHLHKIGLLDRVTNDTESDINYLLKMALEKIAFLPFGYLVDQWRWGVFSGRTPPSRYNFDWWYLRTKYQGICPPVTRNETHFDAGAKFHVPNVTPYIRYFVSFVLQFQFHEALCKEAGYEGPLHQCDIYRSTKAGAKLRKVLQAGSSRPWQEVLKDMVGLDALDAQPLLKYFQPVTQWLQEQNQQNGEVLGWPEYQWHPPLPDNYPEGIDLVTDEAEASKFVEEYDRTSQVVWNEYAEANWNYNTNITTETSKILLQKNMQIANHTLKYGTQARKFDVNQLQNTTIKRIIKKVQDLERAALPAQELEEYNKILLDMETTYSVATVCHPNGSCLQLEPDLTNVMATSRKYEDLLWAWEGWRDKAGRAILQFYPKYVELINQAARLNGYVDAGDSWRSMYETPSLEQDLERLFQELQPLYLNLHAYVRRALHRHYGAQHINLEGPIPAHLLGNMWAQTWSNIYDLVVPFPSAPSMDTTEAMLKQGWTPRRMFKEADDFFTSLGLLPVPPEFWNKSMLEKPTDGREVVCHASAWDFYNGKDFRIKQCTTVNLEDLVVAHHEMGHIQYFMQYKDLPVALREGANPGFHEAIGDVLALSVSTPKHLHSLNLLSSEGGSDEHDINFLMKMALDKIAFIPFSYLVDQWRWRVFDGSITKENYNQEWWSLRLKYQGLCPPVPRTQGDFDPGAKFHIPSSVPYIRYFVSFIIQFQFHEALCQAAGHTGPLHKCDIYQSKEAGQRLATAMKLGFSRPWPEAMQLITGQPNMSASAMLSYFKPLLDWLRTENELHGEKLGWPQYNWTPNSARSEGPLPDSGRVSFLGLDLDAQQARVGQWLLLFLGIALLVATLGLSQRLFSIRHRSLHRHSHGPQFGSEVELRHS

| Compound | incidence of restenosis vs placebo (ACE) | difference compared to the control group in any of the parameters measured ([1]; 10 μg/kg/hr infusion) | reduction in neointimal area vs control rats ([1]; 24 μg/kg/hr infusion) | endothelial function as measured in the thoracic aorta position, proximal from the stent ([1]; Ang-(1-7) infusion) | Media Area [1, 3] | Neointimal Thickness [1, 3] | Percentage Stenosis ([1]; Ang-(1-7) infusion 24 μg/kg/hr for three weeks, p = 0.016 vs. control) | Neointimal area ([1]; Ang-(1-7) infusion 24 μg/kg/hr for three weeks, p = 0.035 vs. control) | smooth muscle cell proliferation associated with balloon-catheter injury [2] |
| --- | --- | --- | --- | --- | --- | --- | --- | --- | --- |
| CCOC(=O)[C@H](CCc1ccccc1)N[C@H]1CCCN2CCC[C@@H](C(=O)O)N2C1=O [cilazapril] | no significant differences | – | – | – | – | – | – | – | – |
| Asp Arg Val Tyr lie His Pro (DRVYIHP; listed as Homo sapiens) [Ang-(1-7)] | – | did not show any significant difference | 27% | improved endothelial function | 0.40 ± 0.05 mm^2 | 111 ± 8 µm | 10.4 ± 1.0 % | 0.51 ± 0.05* mm^2 | inhibited |
